Data as given in patent US20110124787A1, “RUBBER COMPOSITION” (BRIDGESTONE CORPORATION, priority 2008, published 2011).

Compound | melting point [°C]
CCN(Sc1nc2ccccc2s1)C(C)(C)C [N-ethyl-N-t-butylbenzothiazole-2-sulfenamide] | 60 to 61
CN(Sc1nc2ccccc2s1)C(C)(C)C [N-methyl-N-t-butylbenzothiazole-2-sulfenamide] | 56 to 58
CCCCN(Sc1nc2ccccc2s1)C(C)(C)C [N-n-butyl-N-t-butylbenzothiazole-2-sulfenamide] | 55 to 56
